This passage reports EC50 results from article PMC2222910 (The Journal of General Physiology, 1999).

SMILES strings stand for the structures. pEC50: −log10 of the molar value.

In this assay the target is T1, P2X2 purinoceptor (Rattus norvegicus, UniProt P49653).
T1 sequence (P49653 1-472): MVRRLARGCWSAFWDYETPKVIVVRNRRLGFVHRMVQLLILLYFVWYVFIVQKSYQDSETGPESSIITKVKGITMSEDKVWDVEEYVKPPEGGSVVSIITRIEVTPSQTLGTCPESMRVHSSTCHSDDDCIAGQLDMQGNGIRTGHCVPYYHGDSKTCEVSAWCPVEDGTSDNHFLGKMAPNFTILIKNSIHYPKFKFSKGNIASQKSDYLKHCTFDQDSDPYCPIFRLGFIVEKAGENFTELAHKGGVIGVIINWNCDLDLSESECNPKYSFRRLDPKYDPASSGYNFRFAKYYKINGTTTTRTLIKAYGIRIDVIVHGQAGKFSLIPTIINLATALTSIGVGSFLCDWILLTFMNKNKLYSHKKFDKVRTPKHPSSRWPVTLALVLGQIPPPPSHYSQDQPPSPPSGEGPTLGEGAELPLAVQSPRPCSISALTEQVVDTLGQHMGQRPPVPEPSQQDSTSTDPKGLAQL
Nature of the assay: single channel patch clamp of outside-out patches, Xenopus oocytes. The assay is classed as cell-based. On the technique in general: Patch clamp records ionic current or voltage across a cell membrane.

As for `Nc1ncnc2c1ncn2[C@@H]1O[C@H](COP(=O)(O)OP(=O)(O)OP(=O)(O)O)[C@@H](O)[C@H]1O` [ATP], the pEC50 (usually the negative decadic logarithm of the EC50, by convention in mol/L) was 4.95.
